From the supplement of paper PMC10307832

Key:
Alpelisib = compound: Cc1nc(NC(=O)N2CCC[C@H]2C(N)=O)sc1-c1ccnc(C(C)(C)C(F)(F)F)c1 [Alpelisib]; test: relative viability (nuclei count vs DMSO), 5 days (fraction); higher = more cells survive
Procedure, shortened: (§1)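 Only plates meeting two conditions passed: control CV below 25% and at least one doubling. Lung cancer cell lines, kept overnight at 37 °C in 1536-well plates, were pinned with five library-drug doses (not always all listed) √10 apart on vehicle-anchored plates and grown 5 days without medium change. A one-step fix, permeabilisation and Hoechst stain preceded 4× imaging and MetaXpress nuclear counting. Viability equals treated-well nuclei divided by vehicle-well nuclei, as the median over plates.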

OSI-027 = compound: COc1cccc2cc(-c3nc([C@H]4CC[C@H](C(=O)O)CC4)n4ncnc(N)c34)[nH]c12 [OSI-027]; test: as above
Procedure, shortened: as §1

UMC-11
relative viability (Alpelisib; 0.04 µM): 0.937
relative viability (Alpelisib; 0.1265 µM): 0.954
relative viability (Alpelisib; 0.4 µM): 1.01
relative viability (Alpelisib; 1.265 µM): 0.956
relative viability (Alpelisib; 2 µM, anchor plate): 1
relative viability (Alpelisib; 4 µM): 0.826
relative viability (OSI-027; 0.01 µM): 0.913
relative viability (OSI-027; 0.03162 µM): 0.916
relative viability (OSI-027; 0.1 µM): 0.808
relative viability (OSI-027; 0.3162 µM): 0.704
relative viability (OSI-027; 0.5 µM, anchor plate): 0.49
relative viability (OSI-027; 1 µM): 0.561
